Experimental data published in patent publication US11149028B2, “Methods for treating melanoma using small molecules” (NOVA SOUTHEASTERN UNIVERSITY, priority 2016, dated 2021).
“Also recorded” adds a separate entry of the source.

Experiments:
[1] = test system: LC3-II and beclin-1 in WM266-4 cells; assay: Western blotting for LC3 and beclin-1, WM266-4; format: cell-based, human; settings: 100 μM, 24 h
Procedure: 1×10^6 of WM266-4 or M14 cells were seeded in 3 mL of E-MEM or RPMI-1640 medium supplemented with 10% FBS and 1% penicillin/streptomycin in 6 cm plates. […] After washing with TBST, the membranes were treated with chemilumiscent horseradish peroxidase detection reagent (Thermo Scientific, Cat #32209) and exposed to autoradiography film (Denville Scientific, Inc., Metuchen, N.J., USA, cat #E3018). ImageJ software (NIH, Bethesda, Md.) was used to quantify the intensity of proteins bands. The protein bands were normalized against loading controls (β-actin) and expressed as a fold of an untreated control.

[2] = test system: cleaved lamin A/C in WM266-4 cells; assay: Western blotting for lamin A/C cleavage; format: cell-based, human; settings: 100 μM, 24 h
Procedure: 1×10^6 of WM266-4 or M14 cells were seeded in 3 mL of E-MEM or RPMI-1640 medium supplemented with 10% FBS and 1% penicillin/streptomycin in 6 cm plates. […] After washing with TBST, the membranes were treated with chemilumiscent horseradish peroxidase detection reagent (Thermo Scientific, Cat #32209) and exposed to autoradiography film (Denville Scientific, Inc., Metuchen, N.J., USA, cat #E3018). ImageJ software (NIH, Bethesda, Md.) was used to quantify the intensity of proteins bands. The protein bands were normalized against loading controls.

DDX1 = molecular target: T1, DDX1 (Homo sapiens, UniProt Q92499); assay: Pull-down with biotinylated analogs, western blot; format: binding; settings: WM266-4 lysates
T1 construct: WM-266-4 and M14 cells were sonicated in RIPA lysis buffer; endogenous in cells; host or cells: WM266-4 (and M14) melanoma cells and lysates
T1 sequence (Q92499 whole entry): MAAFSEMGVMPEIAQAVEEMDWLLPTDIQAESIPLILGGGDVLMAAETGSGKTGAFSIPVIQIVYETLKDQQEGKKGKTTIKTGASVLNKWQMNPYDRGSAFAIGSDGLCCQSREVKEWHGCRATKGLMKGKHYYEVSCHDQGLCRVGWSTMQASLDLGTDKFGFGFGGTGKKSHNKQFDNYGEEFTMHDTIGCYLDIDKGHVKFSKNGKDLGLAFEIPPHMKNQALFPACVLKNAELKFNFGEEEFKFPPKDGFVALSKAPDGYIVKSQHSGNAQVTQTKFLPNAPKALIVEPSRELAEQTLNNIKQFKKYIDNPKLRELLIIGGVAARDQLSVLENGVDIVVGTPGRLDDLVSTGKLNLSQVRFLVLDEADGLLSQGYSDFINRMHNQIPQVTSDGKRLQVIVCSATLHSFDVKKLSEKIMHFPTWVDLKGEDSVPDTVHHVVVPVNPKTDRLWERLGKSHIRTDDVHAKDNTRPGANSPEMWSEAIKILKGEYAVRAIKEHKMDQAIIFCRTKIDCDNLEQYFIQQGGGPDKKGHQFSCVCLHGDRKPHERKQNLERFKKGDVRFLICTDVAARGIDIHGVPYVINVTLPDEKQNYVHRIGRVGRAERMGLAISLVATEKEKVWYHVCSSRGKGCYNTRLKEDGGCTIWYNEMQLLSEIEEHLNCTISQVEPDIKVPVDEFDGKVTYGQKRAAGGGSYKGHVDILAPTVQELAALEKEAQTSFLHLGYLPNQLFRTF
Procedure: WM-266-4 and M14 cells were sonicated in RIPA lysis buffer containing added protease inhibitors. Affinity beads were prepared by addition of the 0.3 mg biotinylated probes to the 50 μL of streptavidin agarose resin, which was washed three times with the lysis buffer. Following incubation at 4° C. for 1 h, the obtained affinity beads complexed with biotinylated compounds were washed three times with lysis buffer to remove any unbound materials. The cell lysates (1 mg protein content) were then added to the probe-bound beads, and samples were incubated at 4° C. for 1 h and overnight on a rotator. Following 5 washes with lysis buffer, the samples were subjected to SDS-PAGE. The gels were stained overnight with colloidal blue (Invitrogen). […]
WM-266-4 cells were sonicated in RIPA lysis buffer containing protease inhibitors. […] Following 5 washes with lysis buffer, the protein isolates were subjected to SDS-PAGE followed by transfer to nitrocellulose membrane. hnRNP H2 was detected using rabbit polyclonal antibody (Abgent #: AP13497b; 1:3,000, in 2% milk overnight), DDX1 monoclonal antibody (Santa Cruz #sc-271393, 1:1,000 in 2% BSA overnight), or hnRNP B1/A2 monoclonal antibody (Santa Cruz #SC-32316, 1:1,000 in 2% BSA overnight). […] ImageJ software (NIH, Bethesda, Md.) was used to quantify the intensity of proteins bands. […]

hnRNP H2 = assay: Pull-down with biotinylated analogs, western blot; format: binding, human; settings: WM266-4 lysates
Procedure: (§1) WM-266-4 and M14 cells were sonicated in RIPA lysis buffer containing added protease inhibitors. Affinity beads were prepared by addition of the 0.3 mg biotinylated probes to the 50 μL of streptavidin agarose resin, which was washed three times with the lysis buffer. Following incubation at 4° C. for 1 h, the obtained affinity beads complexed with biotinylated compounds were washed three times with lysis buffer to remove any unbound materials. The cell lysates (1 mg protein content) were then added to the probe-bound beads, and samples were incubated at 4° C. for 1 h and overnight on a rotator. Following 5 washes with lysis buffer, the samples were subjected to SDS-PAGE. The gels were stained overnight with colloidal blue (Invitrogen). Gel bands of interest were excised, reduced, carbidomethylated, dehydrated, and digested with Trypsin Gold (Promega) as per manufacturers' instructions. Following digestion, peptides were extracted, all fractions were combined, and the volume was reduced in a SpeedVac to near dryness, and re-suspended to 20 μL using 95% ddH2O/5% ACN/0.1% formic acid (FA) prior to analysis by 1D reversed-phase LC-nESI-MS2 (as outlined below) (Ludwig, M. R. et al. Surveying the serologic proteome in a tissue-specific kras(G12D) knockin mouse model of pancreatic cancer. Proteomics 16, 516-531, doi:10.1002/pmic.201500133 2016).
(§2) WM-266-4 cells were sonicated in RIPA lysis buffer containing protease inhibitors. Affinity beads were prepared by addition of the biotinylated probes (0.3 mg) to the streptavidin agarose resin (50 μL), which was first washed three times with the lysis buffer. […] The protein extract (1 mg) was then added to the probe-bound beads, and samples were incubated at 4° C. overnight. Following 5 washes with lysis buffer, the protein isolates were subjected to SDS-PAGE followed by transfer to nitrocellulose membrane. hnRNP H2 was detected using rabbit polyclonal antibody (Abgent #: AP13497b; 1:3,000, in 2% milk overnight), DDX1 monoclonal antibody (Santa Cruz #sc-271393, 1:1,000 in 2% BSA overnight), or hnRNP B1/A2 monoclonal antibody (Santa Cruz #SC-32316, 1:1,000 in 2% BSA overnight). After washing with TBST, the membranes were treated with chemilumiscent horseradish peroxidase detection reagent (Thermo Scientific, Cat #32209) and exposed to autoradiography film (Denville Scientific, Inc., Metuchen, N.J., USA, cat #E3018). ImageJ software (NIH, Bethesda, Md.) was used to quantify the intensity of proteins bands. The protein bands were normalized against loading controls.

hnRNP A2/B1 = assay: Pull-down with biotinylated analogs, western blot; format: binding, human; settings: WM266-4 lysates
Procedure: as §1, §2

WM266-4 cells = assay: CellTiter-Glo cell viability assay, WM266-4 (including rescue assays); format: cell-based, human; settings: 72 h
Procedure: Cells were plated in 384-well plates in 8 μL of media. Test compounds and dabrafenib (pharmacological assay control) were prepared as 10-point, 1:3 serial dilutions starting at 300 μM, then added to the cells (4 μL per well) using the Biomek Plates were incubated for 72 h at 37° C., 5% CO2 and 95% relative humidity. After incubation, 4 μL of CellTiter-Glo® (Promega cat #: G7570) were added to each well, and incubated for 15 min at room temperature. Luminescence was recorded using a Biotek Synergy H4 multimode microplate reader. Viability was expressed as a percentage relative to wells containing media only (0%) and wells containing cells treated with DMSO only (100%). Three parameters were calculated on a per-plate basis: (a) the signal-to-background ratio (SB); (b) the coefficient for variation [CV; CV=(standard deviation/mean)×100)] for all compound test wells; and (c) the Z′-factor (18). The IC50 value of the pharmacological control (dabrafenib, LC Laboratories #G-4408) was also calculated to ascertain the assay robustness. In case of viability rescue assays, cells were pre-treated with caspase, calpain, and autophagy inhibitors for 1-3 h before addition of test compounds. Time course viability assay was done with luminescence measurements performed at 4, 24, 48, and 72 h.

lamin A/C = assay: Pull-down with biotinylated analogs; format: binding, human; settings: WM266-4 lysates
Procedure: as §1

PC-3 cells = settings: read-out: IC50, apoptotic cell death of PC-3 cells; cited from earlier work

Row | Structure (SMILES) | LC3-II level [1] | cleaved lamin A/C level [2] | DDX1 in pulldown, western blot (DDX1) | hnRNP H2 in pulldown, western blot (hnRNP H2) | hnRNP A2/B1 in pulldown, western blot (hnRNP A2/B1) | inhibition of WM266-4 viability (WM266-4 cells; 100 μM) | IC50 (WM266-4 cells; Homo sapiens, WM 266-4, 72 h) | lamin A/C interaction in pulldown (lamin A/C) | IC50 (PC-3 cells)
1 | O=C(CCCC[C@H]1SC[C@H]2NC(=O)N[C@H]21)NCCCC[C@H]1CN([C@H](CC2CCCCC2)CN2CCC[C@H]2CN2C(=O)C(=O)NC[C@@H]2Cc2ccccc2)C(=O)C(=O)N1CCc1ccccc1 [Compound 2529-7, N-(4-((S)-4-((R)-1-((S)-2-(((S)-6-benzyl-2,3-dioxopiperazin-1-yl)methyl)pyrrolidin-1-yl)-3-cyclohexylpropan-2-yl)-5,6-dioxo-1-phenethylpiperazin-2-yl)butyl)-5-((3aR,4R,6aS)-2-oxohexahydro-1H-thieno[3,4-d]imidazol-4-yl)pentanamide] | increased LC3-II to the levels of 2155-14/2529-1; also recorded: effect on LC3-II levels similar to non-biotinylated 2155-14/2529-1 | failing to increase levels of cleaved lamin A/C; also recorded: had no effect on cleavage of lamin A/C; also recorded: did not induce cleavage of lamin A/C | confirmed | two bands | three bands | completely inhibited viability | 3.3 ± 0.5 µM | lack of lamin A/C interaction | –
2 | O=c1c(O)c(-c2ccc(O)c(O)c2)oc2cc(O)cc(O)c12 [quercetin] | – | – | – | – | – | – | – | – | 100 µM
